We go through three substances from paper PMC3198734 (PLoS ONE, 2011).

In one test the test system is Acinetobacter baumannii. The format is cell-based. The settings on record: data not shown.
Test [1] deals with IL-1β, GM-CSF, KC, RANTES, MIP-1α in BAL fluid. The format is in vivo, BALB/c mice.

Where no end group is shown, it is not given here.

Regarding “RGGRLCYCRRRFCVCVGR-NH2 (also: bicyclic or more (positions not given here)) [Protegrin-1, porcine neutrophil-derived cathelicidin peptide with two disulfide bridges]”, in the test with Acinetobacter baumannii, the “antimicrobial activity of the preparation” value (“antimicrobial activity” below) is “confirmed”.

On to “LLGDFFRKSKEKIGKEFKRIVQRIKDFLRNLVPRTES [LL-37, human cathelicidin peptide generated from hCAP-18]”, for which the “antimicrobial activity” value in the test on Acinetobacter baumannii was “confirmed”. In test [1] (mouse, in vivo), the “BAL fluid concentration of GM-CSF compared with PR/8 infected control animals” value is “significantly lower”, the “BAL fluid concentration of IL-1β compared with PR/8 infected control animals” value is recorded as “significantly lower”, the “BAL fluid concentration of KC” value was “unchanged compared with uninfected controls” and the “BAL fluid concentration of MIP-1α (non-significant increase after infection)” value is listed as “this increase was ameliorated”. Besides, the “BAL fluid concentration of RANTES” value in test [1] (mouse, in vivo) is on record as “unchanged compared with uninfected controls”. Moreover, the “BAL fluid cytokine concentrations in the absence of influenza virus infection” value in test [1] (uninfected mice, nebulized peptide, BAL on day 3) is given as “did not significantly alter cytokine concentrations”.

With “GLLRKGGEKIGEKLKKIGQKIKNFFQKLVPQPEQ [mCRAMP, mouse cathelicidin peptide]”, in the test with Acinetobacter baumannii, the “antimicrobial activity” value is on record as “confirmed”.
